# Data as given in patent US20120108947A1, “METHOD FOR PREDICTING WEIGHT GAIN ASSOCIATED WITH A PHARMACEUTICAL THERAPY” (priority 2009, published 2012).
# Conditions: in vivo
# Method: TRL V1, V2, V3, V4, V5 and V6 responses and VLDL size response are measured during each visit along with increases in weight. […] The relationship of the change in TRL V6 to the change in weight is analyzed using a mixed effects model analysis.
structure (smiles),measurement,value
"Cc1cc2c(s1)Nc1ccccc1N=C2N1CCN(C)CC1 [olanzapine, 2-methyl-4-(4-methyl-1-piperazinyl)-10H-thieno[2,3-b][1,5]benzodiazepine]",magnitude of the TRL V6 response and VLDL size response in comparison to pre-dose concentration,increases
